“And” between values parts separate entries of the source, which are not always exact repeats. Equal entries are not always repeated.
Target: SARS-CoV-2 3CL^pro C145G (Severe acute respiratory syndrome coronavirus 2, UniProt P0DTD1, C3408G)
Type: binding

SMILES	-TΔS
CC(C)(C)NC(=O)N[C@H](C(=O)N1C[C@H]2[C@@H]([C@H]1C(=O)N[C@H](C#N)C[C@@H]1CCNC1=O)C2(C)C)C(C)(C)C [compound 2]	-5.978 ± 0.1 kcal/mol and -5.978 kcal/mol
CC(C)(C)NC(=O)N[C@H](C(=O)N1CC2(C[C@H]1C(=O)N[C@H](C#N)C[C@@H]1CCNC1=O)SCCS2)C(C)(C)C [compound 7]	-4.818 ± 0.268 kcal/mol and -4.818 kcal/mol
CC(C)(C)[C@H](NC(=O)C1(F)CC1)C(=O)N1CC2(C[C@H]1C(=O)N[C@H](C#N)C[C@@H]1CCNC1=O)SCCS2 [compound 10]	-2.18 ± 0.562 kcal/mol and -2.18 kcal/mol
CC(C)(C)[C@H](NS(C)(=O)=O)C(=O)N1CC2(C[C@H]1C(=O)N[C@H](C#N)C[C@@H]1CCNC1=O)SCCS2 [compound 11]	-3.559 ± 0.332 kcal/mol and -3.559 kcal/mol
CC(C)(C)[C@H](NS(=O)(=O)C1CC1)C(=O)N1CC2(C[C@H]1C(=O)N[C@H](C#N)C[C@@H]1CCNC1=O)SCCS2 [compound 12]	-1.19 ± 0.325 kcal/mol and -1.19 kcal/mol

Reference: article PMC10575921 (Nature Communications, 2023)
